Read-outs that look alike come from different tables or passages of the source.
Assays:
[1] = system: 4T1 breast cancer cell line; test: Alamar Blue cell viability, 4T1; assay type: cell-based; conditions: 4T1, 24 h incubation
Protocol: 4T1 breast cancer cell line was cultured in RPMI-1640 (Gibco Invitrogen) with 10 % fetal bovine serum (FBS, the bovine serum albumin is a major component), 1 % penicillin and streptomycin and 0.2 % fungizone. Cells were routinely cultured at 37 °C in a humidified incubator in 5 % CO2 atmosphere. Cell viability was measured using Alamar Blue assay. Cells were seeded on 96-well plate with density of 10^4 cells per cm^2 and cultured for 24 h in medium with or without 2 % serum. Then cells were incubated with various concentrations of ruthenium compounds for 24 h in the dark. All used ruthenium complexes were freshly diluted in DMSO and then added to the appropriate medium to obtain the applied concentrations. The final DMSO concentration was kept constant at 0.05 % (v/v). Next cells were washed with PBS and incubated in AlamarBlue solution (21 times diluted in PBS) for 3 h. Alamar Blue test is based on the reduction of blue and non-fluorescent subtract (resazurin) to a pink and highly fluorescent product (resorufin) by the alive cells. Extract mechanism of the reduction is still unknown, but it is postulated that reduction occurs by mitochondrial or cytoplasmic enzymes, such as NADH dehydrogenase or diaphorase. It is still not known whether this process occurs intracellularly, at the plasma membrane surface or just in the medium as a chemical reaction. The cell viability was quantified at 605 nm using 560 nm excitation light (VICTOR 3V multilabel plate readers, PerkinElmer). Experiments were performed in triplicates and each experiment was performed at least three times to get the mean values ± standard deviation. The viability was calculated with regard to the untreated cells control. The IC50 values were determined using Hill equation (Origin 9.0): y=y0+y100-y0c^H/IC50^H+c^H

[2] = system: Human lung adenocarcinoma epithelial cell line (A549); test: Alamar Blue cell viability, A549; assay type: cell-based; conditions: A549, 24 h
Protocol: (§1) 10% FBS, 1% peniciline and streptomycin and 0.2% fungizone. Cells were routinely cultured at 37 °C in a humidified incubator in 5% CO2 atmosphere.
(§2) Cell viability was measured using Alamar Blue assay. Cells were seeded on 96 wells plate with density of 1 × 10^4 cells per cm2 and cultured for 1 day. Then cells were incubated with various concentrations of compounds in medium with or without 2% FBS for 24 and 48 h under normoxic and hypoxic conditions in the darkness. Next cells were washed with PBS and incubated in Alamar Blue solution for 3 h. The cell viability was quantified at 605 nm using 560 nm excitation light (VICTOR 3V multilabel plate reader PerkinElmer or Tecan Infinite200 Reader). Experiments were performed in triplicates and each experiment was performed at least three times to get the mean values ± standard derivation. The viability was calculated with regard to the untreated cells control. The IC50 values were determined using Hill equation (Origin 9.0). […]

[3] = system: murine endothelial cells isolated from aorta-gonad-mesonephros (AGM) region of 10.5 dpc embryos (MAgEC 10.5); test: Alamar Blue cell viability, MAgEC 10.5; assay type: cell-based; conditions: MAgEC 10.5, 24 h
Protocol: (§3) FVB mouse lung microvascular endothelial cells (MLuMEC FVB) and murine endothelial cells isolated from aorta-gonad-mesonephros (AGM) region of 10.5 dpc embryos (MAgEC 10.5) were cultured in OptiMEM with Glutamax-I (Gibco Invitrogen) supplemented with 2% fetal bovine serum (FBS), 0.4% gentamycin and 0.2% fungizone. […]
as §1, §2

[4] = system: FVB mouse lung microvascular endothelial cells (MLuMEC FVB); test: Alamar Blue cell viability, MLuMEC; assay type: cell-based; conditions: 24 h
Protocol: as §3, §1, §2

[5] = aqueous solution, cited from earlier work

In the case of `N.N.[Cl][Pt][Cl]` [Cisplatin, reference compound], the IC50 ([1]; medium with serum (2 %)) is reported as 59.8 ± 8.32 µM, the IC50 ([1]; medium without serum) is reported as 73 ± 14.9 µM and the IC50 ([2]; with serum (2%)) is reported as 71.3 ± 22.9 µM. It also gave an IC50 ([2]; without serum) of 126 ± 30.5 µM, an IC50 ([3]; with serum (2%)) of 8.75 ± 0.2 µM and an IC50 ([3]; without serum) of 9.38 ± 0.67 µM. The IC50 ([4]; with serum (2%)) was 14.5 ± 1.4 µM and the IC50 ([4]; without serum) was 24.6 ± 2.89 µM.

For `[Ru+2].c1ccc(-c2ccccn2)nc1.c1ccc(-c2ccccn2)nc1.c1ccc(-c2ccccn2)nc1` [[Ru(bpy)3]^2+, reference compound], the “Φ, quantum yield of luminescence (standard)” value ([5]; air-equilibrium conditions, ref [14]) is listed as 0.028 and the “Φ, quantum yield of luminescence (standard)” value ([5]; deoxygenated conditions, ref [20]) is listed as 0.042.
